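Each compound was tested at five concentrations against cells in 96-well plates for 48 hours. Abbreviation: GI50, concentration required for 50% inhibition of growth. Definition used: TGI = concentration required for complete inhibition of growth.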
Tests used:
Test in all cases: growth of human tumour cells (NCI), 48 h
[1] = test system: A498 renal
[2] = test system: HL-60(TB) leukemia
[3] = test system: HT29 colon
[4] = test system: IGROV1 ovarian
[5] = test system: MDA-MB-435
[6] = test system: NCI-H226 lung
[7] = test system: OVCAR-3 ovarian
[8] = test system: PC-3 prostate
[9] = test system: SK-MEL-28 melanoma
[10] = test system: SW-620 colon

SMILES | TGI [1] [µM] | TGI [2] [µM] | TGI [3] [µM] | TGI [4] [µM] | TGI [5] [µM] | TGI [6] [µM] | TGI [7] [µM] | TGI [8] [µM] | TGI [9] [µM] | TGI [10] [µM] | GI50 [1] [µM] | GI50 [2] [µM] | GI50 [3] [µM] | GI50 [4] [µM] | GI50 [5] [µM] | GI50 [6] [µM] | GI50 [7] [µM] | GI50 [8] [µM] | GI50 [9] [µM] | GI50 [10] [µM]
COc1nc2ncc([C@@H](OC(C)=O)[C@@H](COC(C)=O)OC(C)=O)nc2c(=O)[nH]1 | > 100 | > 100 | > 100 | > 100 | > 100 | > 100 | > 100 | > 100 | > 100 | > 100 | – | – | – | – | – | – | – | – | – | –
Oc1[nH]c2ccc(Br)cc2c1N=NC(=S)Nc1ccc(F)cc1 | 8.76 | 6.84 | 28 | 23.2 | 13.6 | 40.1 | 29 | 39.1 | 39.8 | 40.2 | – | – | – | – | – | – | – | – | – | –
C(/C=C(\Nc1ccccc1)C12CC3CC(CC(C3)C1)C2)=Nc1ccccc1 | > 100 | 32.1 | 27.6 | 36.5 | 34.3 | 38.5 | 21.1 | 33.1 | 47.1 | 41.7 | – | – | – | – | – | – | – | – | – | –
COc1cc2cc(Oc3ccc(NC(=O)c4cc(C(F)(F)F)cc(C(F)(F)F)c4)cc3)c(C)nc2cc1OC | > 50 | > 50 | > 50 | > 50 | > 50 | > 50 | > 50 | > 50 | > 50 | > 50 | 1.13 | 3.51 | > 50 | 4.63 | > 50 | 6.2 | 1.96 | 1.66 | > 50 | 4.35
Cc1cn(-c2cc(C(=O)Nc3cccc(-n4ccc5c(NC(=O)c6ccccc6)nccc54)c3)cc(C(F)(F)F)c2)cn1 | 1.71 | 2.5 | 1.04 | 23 | 0.635 | 17.1 | 1.03 | 15.6 | 5.41 | 1.78 | 0.223 | 0.451 | 0.29 | 0.6 | 0.217 | 0.524 | 0.313 | 0.393 | 0.546 | 0.39
COc1cc(-c2cc(=O)c3cc4c(=O)cc(-c5cc(OC)c(OC)c(OC)c5)oc4cc3o2)cc(OC)c1OC | 65.6 | > 100 | > 100 | > 79.1 | > 100 | 46.2 | > 100 | > 100 | > 100 | > 100 | – | – | – | – | – | – | – | – | – | –
CSc1c(C#N)c(N)n(-c2ccc(C)cc2)c(=O)c1C#N | > 100 | > 100 | > 100 | > 100 | > 100 | > 100 | > 100 | > 100 | > 100 | > 100 | – | – | – | – | – | – | – | – | – | –
COC(=O)CN1c2nc(C#N)c(C#N)nc2N(CC(=O)OC)c2nc(C#N)c(C#N)nc21 | > 52 | 5.61 | 12.1 | 23.4 | > 100 | > 100 | 18.8 | 18.4 | > 100 | > 25.9 | – | – | – | – | – | – | – | – | – | –
CC1(C)C2CC(=O)C1(C)C(O)C2Br (stereo not given) | > 100 | > 100 | > 100 | > 100 | > 100 | > 100 | > 100 | > 100 | > 100 | > 100 | – | – | – | – | – | – | – | – | – | –
COc1ccc(S(=O)(=O)N2C(=O)CCC2C(=O)NN)cc1 (stereo not given) | > 100 | > 100 | > 100 | > 100 | > 100 | > 100 | > 100 | > 100 | > 100 | > 100 | – | – | – | – | – | – | – | – | – | –
Clc1ccc(CSCCc2ccncc2)cc1Cl | 26 | 40 | 31.2 | 52.2 | 49.5 | 49.2 | 33.1 | 45.4 | 50.8 | 46.6 | – | – | – | – | – | – | – | – | – | –
CCCCn1cnc2c(c(CC#N)nn2-c2ccccc2)c1=N | 91.6 | > 100 | > 100 | > 100 | > 100 | > 100 | > 100 | > 100 | > 100 | > 100 | – | – | – | – | – | – | – | – | – | –
O=C1CC(C(O)(C(F)(F)F)C(F)(F)Cl)CCC1C(O)(C(F)(F)F)C(F)(F)Cl (stereo not given) | > 10 | > 10 | > 10 | > 10 | > 10 | > 10 | > 10 | > 10 | > 10 | > 10 | – | – | – | – | – | – | – | – | – | –
COC(C)(C)[C@@H](O)[C@H]1C[C@H](C)[C@@]2(CC[C@]3(C)[C@@H]2CC[C@@H]2[C@@]4(C)CC[C@@H](OC(C)=O)C(C)(C)[C@@H]4C[C@@H](OC4OC(COC(C)=O)C(O)C(O)C4O)[C@]23C)O1 (stereo not given in full) | 14.4 | 4.63 | 4.07 | 16.6 | 12.3 | 17.5 | 15.3 | 8.1 | 20.4 | 20.2 | – | – | – | – | – | – | – | – | – | –
CC(=O)Oc1cc(C(F)(F)F)ccc1C(=O)OC1(C)OC(=O)c2ccc(C(F)(F)F)cc2O1 (stereo not given) | > 100 | > 100 | > 100 | > 100 | > 100 | > 100 | > 100 | > 100 | > 100 | > 100 | – | – | – | – | – | – | – | – | – | –
